Measurements: patent US11179383B2 (Gilead Sciences, Inc., priority 2018, dated 2021)
pEC50: −log10 of the molar value.

Each molecule was assayed against T1, α4β7 integrin (Homo sapiens, UniProt P13612+P26010) (assay: α4β7 Integrin Cell Capture Assay). Settings: capture of α4β7 integrin expressing RPMI8866 cells on recombinant MadCAM-1 extracellular domain-coated plate; DMEM+0.5% FBS+0.5 mM MnCl2; read-out: EC50 α4β7.
T1 construct: monitoring the capture of α4β7 integrin expressing cells on a recombinant MadCAM-1 extracellular domain-coated plate; endogenous in cells; host or cells: RPMI8866 cells
T1 sequence (P13612 34-1032): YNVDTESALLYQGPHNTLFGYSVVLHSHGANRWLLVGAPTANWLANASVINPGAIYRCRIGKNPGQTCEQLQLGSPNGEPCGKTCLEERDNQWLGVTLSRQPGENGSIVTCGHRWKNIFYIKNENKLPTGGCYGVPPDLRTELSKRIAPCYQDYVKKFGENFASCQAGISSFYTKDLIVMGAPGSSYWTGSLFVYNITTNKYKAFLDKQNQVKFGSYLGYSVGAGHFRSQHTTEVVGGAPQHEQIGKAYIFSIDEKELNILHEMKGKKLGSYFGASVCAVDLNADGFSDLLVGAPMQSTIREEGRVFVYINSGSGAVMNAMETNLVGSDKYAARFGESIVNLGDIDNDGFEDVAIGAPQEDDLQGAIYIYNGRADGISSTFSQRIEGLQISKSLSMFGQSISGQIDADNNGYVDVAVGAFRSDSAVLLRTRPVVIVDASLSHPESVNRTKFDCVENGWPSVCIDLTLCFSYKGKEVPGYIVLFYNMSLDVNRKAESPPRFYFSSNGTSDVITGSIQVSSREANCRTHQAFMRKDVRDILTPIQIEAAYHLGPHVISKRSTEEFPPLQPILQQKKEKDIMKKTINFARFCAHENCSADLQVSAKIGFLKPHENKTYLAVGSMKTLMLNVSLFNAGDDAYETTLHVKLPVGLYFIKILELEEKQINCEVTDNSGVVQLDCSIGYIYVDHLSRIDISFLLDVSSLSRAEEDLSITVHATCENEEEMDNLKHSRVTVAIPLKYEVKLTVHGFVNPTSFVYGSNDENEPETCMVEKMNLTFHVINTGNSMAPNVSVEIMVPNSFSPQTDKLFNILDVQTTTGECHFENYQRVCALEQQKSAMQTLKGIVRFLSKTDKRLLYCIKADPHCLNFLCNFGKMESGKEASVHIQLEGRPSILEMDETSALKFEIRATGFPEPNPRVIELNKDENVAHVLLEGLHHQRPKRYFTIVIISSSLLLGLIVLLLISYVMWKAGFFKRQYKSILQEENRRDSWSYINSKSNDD
T1 sequence (P26010 20-798): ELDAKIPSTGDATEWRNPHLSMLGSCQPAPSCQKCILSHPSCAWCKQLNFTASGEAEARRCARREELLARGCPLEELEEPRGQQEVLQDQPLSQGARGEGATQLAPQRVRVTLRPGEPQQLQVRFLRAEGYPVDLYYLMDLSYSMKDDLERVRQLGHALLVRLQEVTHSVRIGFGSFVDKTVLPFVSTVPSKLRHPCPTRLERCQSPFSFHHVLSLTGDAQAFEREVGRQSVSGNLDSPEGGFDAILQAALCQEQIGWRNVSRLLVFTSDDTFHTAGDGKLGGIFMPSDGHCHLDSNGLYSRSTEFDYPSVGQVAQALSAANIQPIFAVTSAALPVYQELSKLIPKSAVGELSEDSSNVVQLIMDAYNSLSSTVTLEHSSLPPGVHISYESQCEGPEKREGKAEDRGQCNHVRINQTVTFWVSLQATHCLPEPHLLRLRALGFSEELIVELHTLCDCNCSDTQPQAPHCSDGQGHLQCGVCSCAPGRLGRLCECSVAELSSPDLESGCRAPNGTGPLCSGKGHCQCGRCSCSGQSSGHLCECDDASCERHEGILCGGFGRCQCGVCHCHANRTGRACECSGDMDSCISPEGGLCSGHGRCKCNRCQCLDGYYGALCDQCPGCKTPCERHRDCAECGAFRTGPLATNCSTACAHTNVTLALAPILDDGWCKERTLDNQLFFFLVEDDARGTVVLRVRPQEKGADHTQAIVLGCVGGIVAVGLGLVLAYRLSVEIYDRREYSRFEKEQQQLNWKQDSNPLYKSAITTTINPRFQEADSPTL
Format: cell-based
How it was run: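 RPMI8866 cells in DMEM + 0.5% FBS + 0.5 mM MnCl2 preincubated with compound 1 h at 37 °C, then allowed to bind 30 min at 37 °C to plates coated with MAdCAM-1 extracellular domain (1.0 μg/mL). Cells fixed with glutaraldehyde, Hoechst-stained, imaged and bound cells counted; EC50 from cell count versus concentration.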

**Q.** COc1cc(F)c(F)cc1-c1ccc(C[C@H](NC(=O)c2c(Cl)cccc2Cl)C(=O)O)c2nccc(C)c12 [Example 97, (S)-2-(2,6-dichlorobenzamido)-3-(5-(4,5-difluoro-2-methoxyphenyl)-4-methylquinolin-8-yl)propanoic acid] was tested. Which pEC50 did it give?
**A.** 7.01

**Q.** With CC[C@@H](Nc1cc(F)c(C(=O)N[C@@H](Cc2ccc(-c3c(C)n(C)c(=O)n(C)c3=O)c3cccnc23)C(=O)O)c(F)c1)C(F)(F)F (single isomer, unassigned) [Example 9] as the molecule, how does the pEC50 read?
**A.** 8.39

**Q.** How did the pEC50 turn out when CCOCc1cc(OC)c(-c2ccc(C[C@H](NC(=O)c3c(F)cccc3F)C(=O)O)c3nc(C)oc23)c(OC)c1 [Example 152, (S)-2-(2,6-difluorobenzamido)-3-(7-(4-(ethoxymethyl)-2,6-dimethoxyphenyl)-2-methylbenzo[d]oxazol-4-yl)propanoic acid] was run?
**A.** 7.24

**Q.** With Cc1c(-c2ccc(C[C@H](NC(=O)c3c(F)cccc3F)C(=O)O)c3ccccc23)c(=O)n(C)c2ccccc12 (single isomer, unassigned) [Example 119] as the molecule, how does the pEC50 read?
**A.** 7.08

**Q.** Cc1cc(C(F)(F)F)c(-c2ccc(C[C@H](NC(=O)c3c(F)cc(N4CCOC[C@@H]4C(F)(F)F)cc3F)C(=O)O)c3nccnc23)c(=O)n1C (atropisomer, axis not shown) [Example 179] was tested. Which pEC50 did it give?
**A.** 10.00

**Q.** With COc1cc(F)c(F)cc1-c1ccc(C[C@H](NC(=O)c2c(Cl)cccc2Cl)C(=O)O)c2nccc(Cl)c12 [Example 94, (S)-3-(4-chloro-5-(4,5-difluoro-2-methoxyphenyl)quinolin-8-yl)-2-(2,6-dichlorobenzamido)propanoic acid] as the molecule, how does the pEC50 read?
**A.** 6.96

**Q.** With CCOCc1cc(OC)c(-c2ccc(CC(NC(=O)c3c(F)cc(NS(=O)(=O)c4ccc(-c5ccnc(F)c5)cc4)cc3F)C(=O)O)c3c2cnn3C)c(OC)c1 (stereo not shown) [Example 143, 2-(2,6-difluoro-4-((4-(2-fluoropyridin-4-yl)phenyl)sulfonamido)benzamido)-3-(4-(4-(ethoxymethyl)-2,6-dimethoxyphenyl)-1-methyl-1H-indazol-7-yl)propanoic acid] as the molecule, how does the pEC50 read?
**A.** 7.52

**Q.** With CCOCc1cc(OC)c(-c2ccc(C[C@H](NC(=O)c3c(F)cc(NS(=O)(=O)c4ccc(-c5ccnc(F)c5)cc4)cc3F)C(=O)O)c3ccccc23)c(OC)c1 [Example 105, (S)-2-(2,6-difluoro-4-((4-(2-fluoropyridin-4-yl)phenyl)sulfonamido)benzamido)-3-(4-(4-(ethoxymethyl)-2,6-dimethoxyphenyl)naphthalen-1-yl)propanoic acid] as the molecule, how does the pEC50 read?
**A.** 9.10

**Q.** With Cc1cc(C)n(C)c(=O)c1-c1ccc(C[C@H](NC(=O)c2c(F)cc(N3CCOC[C@@H]3C(F)(F)F)cc2F)C(=O)O)c2ccccc12 (single isomer, unassigned) [Example 127] as the molecule, how does the pEC50 read?
**A.** 9.40

**Q.** Cc1cc(C(F)(F)F)c(-c2ccc(C[C@H](NC(=O)c3c(F)cc(N4CCOC[C@@H]4C(F)(F)F)cc3F)C(=O)O)c3ccccc23)c(=O)n1C (single isomer, unassigned) [Example 128] was tested. Which pEC50 did it give?
**A.** 8.77

**Q.** O=C(N[C@@H](Cc1ccc(-c2ncc3ccccc3c2C(F)(F)F)c2ccccc12)C(=O)O)c1c(Cl)cccc1Cl [Example 115, (S)-2-(2,6-dichlorobenzamido)-3-(4-(4-(trifluoromethyl)isoquinolin-3-yl)naphthalen-1-yl)propanoic acid] was tested. Which pEC50 did it give?
**A.** 7.66

**Q.** With Cc1c(-c2ccc(C[C@H](NC(=O)c3c(F)cccc3F)C(=O)O)c3nccnc23)c(=O)n(C)c2ccc(F)cc12 [Example 159, (S)-2-(2,6-difluorobenzamido)-3-(8-(6-fluoro-1,4-dimethyl-2-oxo-1,2-dihydroquinolin-3-yl)quinoxalin-5-yl)propanoic acid] as the molecule, how does the pEC50 read?
**A.** 8.72

**Q.** CCOCc1cc(OC)c(-c2cnc(C[C@H](NC(=O)c3c(F)cc(NS(=O)(=O)c4ccc(-c5ccnc(F)c5)cc4)cc3F)C(=O)O)c3cccnc23)c(OC)c1 [Example 166, (S)-2-(2,6-difluoro-4-((4-(2-fluoropyridin-4-yl)phenyl)sulfonamido)benzamido)-3-(8-(4-(ethoxymethyl)-2,6-dimethoxyphenyl)-1,6-naphthyridin-5-yl)propanoic acid] was tested. Which pEC50 did it give?
**A.** 7.61

**Q.** Cc1c(-c2ccc(C[C@H](NC(=O)c3c(Cl)cccc3Cl)C(=O)O)c3ncccc23)c(=O)n(C)c2ccc(Cl)cc12 (single isomer, unassigned) [Example 75] was tested. Which pEC50 did it give?
**A.** 7.64

**Q.** With COc1cnn(C)c(=O)c1-c1ccc(C[C@H](NC(=O)c2c(Cl)cccc2Cl)C(=O)O)c2ncccc12 (single isomer, unassigned) [Example 73] as the molecule, how does the pEC50 read?
**A.** 8.08

**Q.** How did the pEC50 turn out when Cc1cc(C)n(C)c(=O)c1-c1ccc(C[C@H](NC(=O)c2c(F)cc(N3CCOC[C@@H]3C(F)(F)F)cc2F)C(=O)O)c2ccccc12 (single isomer, unassigned) [Example 126] was run?
**A.** 8.19

**Q.** CCOCc1cc(OC)c(-c2ccc(CC(NC(=O)c3c(F)cc(NS(=O)(=O)c4ccc(-c5ccnc(F)c5)cc4)cc3F)C(=O)O)c3ccncc23)c(OC)c1 (stereo not shown) [Example 160, 2-(2,6-difluoro-4-((4-(2-fluoropyridin-4-yl)phenyl)sulfonamido)benzamido)-3-(8-(4-(ethoxymethyl)-2,6-dimethoxyphenyl)isoquinolin-5-yl)propanoic acid] was tested. Which pEC50 did it give?
**A.** 9.22

**Q.** O=C(N[C@@H](Cc1ccc(-c2c(Cl)cc(F)cc2Cl)c2cccnc12)C(=O)O)c1c(F)cc(N2CCOCC2C(F)(F)F)cc1F (single isomer, unassigned) [Example 6] was tested. Which pEC50 did it give?
**A.** 6.86

**Q.** How did the pEC50 turn out when COc1cc(F)cc(C(F)(F)F)c1-c1ccc(C[C@H](NC(=O)c2c(Cl)cccc2Cl)C(=O)O)c2ncccc12 (single isomer, unassigned) [Example 50] was run?
**A.** 6.82

**Q.** With Cn1cc(Cl)cc(-c2ccc(C[C@H](NC(=O)c3c(Cl)cccc3Cl)C(=O)O)c3ncccc23)c1=O [Example 29, (S)-3-(5-(5-chloro-1-methyl-2-oxo-1,2-dihydropyridin-3-yl)quinolin-8-yl)-2-(2,6-dichlorobenzamido)propanoic acid] as the molecule, how does the pEC50 read?
**A.** 7.78

**Q.** CCOCc1cc(OC)c(-c2ccc(C[C@@H](NC(=O)c3c(F)cc(NS(=O)(=O)c4ccc(-c5ccnc(F)c5)cc4)cc3F)C(=O)O)c3cnn(C)c23)c(OC)c1 (single isomer, unassigned) [Example 148] was tested. Which pEC50 did it give?
**A.** 8.44

**Q.** How did the pEC50 turn out when O=C(N[C@@H](Cc1ccc(-c2c(Cl)cc(F)cc2Cl)c2cccnc12)C(=O)O)c1c(F)cc(N[C@H](c2ccccc2)C(F)(F)F)cc1F [Example 3, (S)-3-(5-(2,6-dichloro-4-fluorophenyl)quinolin-8-yl)-2-(2,6-difluoro-4-(((R)-2,2,2-trifluoro-1-phenylethyl)amino)benzamido)propanoic acid] was run?
**A.** 6.41

**Q.** How did the pEC50 turn out when COc1cc(F)c(F)cc1-c1ccc(C[C@H](NC(=O)c2c(Cl)cccc2Cl)C(=O)O)c2nccc(C)c12 (single isomer, unassigned) [Example 99] was run?
**A.** 7.30

**Q.** Cc1c(-c2ccc(C[C@H](NC(=O)c3c(Cl)cccc3Cl)C(=O)O)c3ccccc23)c(=O)n(C)c(=O)n1C (single isomer, unassigned) [Example 110] was tested. Which pEC50 did it give?
**A.** 7.85

**Q.** How did the pEC50 turn out when O=C(N[C@@H](Cc1ccc(-c2ncc3ccccc3c2Br)c2cccnc12)C(=O)O)c1c(Cl)cccc1Cl [Example 25, (S)-3-(5-(4-bromoisoquinolin-3-yl)quinolin-8-yl)-2-(2,6-dichlorobenzamido)propanoic acid] was run?
**A.** 7.70
